A word on the IC50: it is the concentration at which inhibition is half-maximal.

This is an account of results in patent EP0857721A1, “ACRIDONE COMPOUNDS” (Eisai Co., Ltd., priority 1995, dated 1997).

The experiment relates to RBL-2H3 cells. Put plainly: Inhibition of serotonin liberation from IgE-sensitized, antigen-stimulated RBL-2H3 cells ([3H]-serotonin). The following applies: Rattus norvegicus; IgE-sensitized RBL-2H3 cells stimulated with specific antigen; [3H]-labeled serotonin. The experiment is classed as cell-based. The text has this: Under the action of an antigen specific to the IgE antibody, RBL-2H3 cells, i.e., a cell line originating in rat cells, not only liberate histamine and serotonin but also produce and liberate cytokines such as TNF" serving as an inflammatory mediator and prostaglandins. In this experimental system, the effects of the compounds of the present invention of inhibiting the liberation of various mediators were examined by using serotonin as an indication.
The cells were labeled with [^3H]-labeled serotonin and, at the same time, sensitized with the IgE antibody. Next, these cells were incubated in the presence of the acridone compounds according to the present invention and then stimulated with the specific antigen. Then the serotonin liberation inhibitory activity of each acridone compound was calculated from the amount of the [^3H]-labeled serotonin thus liberated into the medium due to the above-mentioned stimulation and the amount of the [^3H]-labeled serotonin liberated into the medium by the same experimental procedure as the one described above but adding no acridone compound of the present invention.

SMILES strings stand for the structures.

Take `Cc1ccc2c(=S)c3ccccc3n(CCCNCc3ccccc3)c2c1C` [Compound 131]: the IC50 is 10 µM. In the case of `COC(=O)CCc1cccc2c1c(=O)c1ccc(C)c(C)c1n2CCCNCc1ccccc1` [Compound 22], the IC50 was determined as 3 µM. Consider `Cc1ccc2c(=O)c3ccccc3n(CCCNOCc3ccccc3)c2c1C` [Compound 72], for which the IC50 was determined as 2 µM.

Turning to `Cc1ccc2c(=O)c3c(CC(=O)O)cccc3n(CCCNCc3ccc(C(F)(F)F)cc3C(F)(F)F)c2c1C` [Compound 29], the IC50 was 8 µM. Regarding `Cc1ccc2c(=O)c3c(CC(=O)O)cccc3n(CCCNCc3cccc(Cl)c3)c2c1C` [Compound 106], the 50% inhibitory concentration (IC50) was 10 µM. Take `Cc1ccc2c(=O)c3c(C(C)C(=O)O)cccc3n(CCCNCc3ccc(Cl)c(Cl)c3)c2c1C` (stereo not drawn) [Compound 142]: the IC50 is 1 µM. Turning to `Cc1ccc2c(=O)c3ccccc3n(Cc3ccc(CNCc4ccccc4)o3)c2c1C` [Compound 133], the 50% inhibitory concentration (IC50) is 2 µM.

With `Cc1ccc2c(=O)c3ccccc3n(Cc3cccc(CN)n3)c2c1C` [Compound 120], the IC50 turned out to be 8 µM.

Take `Cc1ccc2c(=O)c3ccccc3n(CCCNCc3cccc(F)c3)c2c1C` [Compound 42]: the IC50 turned out to be 2 µM.

As to `Cc1ccc2c(=O)c3ccccc3n(CCCNCc3cccc(C(=O)O)c3)c2c1C` [Compound 56], the IC50 stood at 7 µM. For the compound `Cc1ccc(CNCCCn2c3cccc(CC(=O)O)c3c(=O)c3ccc(C)c(C)c32)c(C)c1` [Compound 26], the half-maximal inhibitory concentration (IC50) was found to be 10 µM.

On to `Cc1ccc2c(=O)c3ccccc3n(Cc3ccc(CNCc4ncc[nH]4)cc3)c2c1C` [Compound 126], for which the IC50 is 10 µM. On to `Cc1ccc2c(=O)c3ccccc3n(CCCN(CCO)Cc3ccccc3)c2c1C` [Compound 77], for which the IC50 came to 1 µM. Turning to `Cc1ccc2c(=O)c3ccccc3n(CCCN(CCC#N)Cc3ccccc3)c2c1C` [Compound 75], the IC50 came to 3 µM. Regarding `Cc1ccc2c(=O)c3ccccc3n(CCCNCc3ccc(S(=O)(=O)N(C)C)cc3)c2c1C` [Compound 70], the half-inhibitory concentration (IC50) is 8 µM.

With `Cc1ccc2c(=O)c3ccccc3n(CCCNCc3cccc(C(F)(F)F)c3)c2c1C` [Compound 38], the IC50 turned out to be 2 µM. Consider `Cc1ccc2c(=O)c3c(CC(=O)O)cccc3n(CCCNCc3cccc(F)c3)c2c1C` [Compound 108], for which the IC50 worked out at 5 µM.

For `Cc1ccc2c(=O)c3ccccc3n(CCCNCc3ccccc3Cl)c2c1C` [Compound 63], the IC50 worked out at 10 µM.

Take `Cc1ccc2c(=O)c3c(CC(=O)O)cccc3n(CCCNCc3ccc(Cl)cc3O)c2c1C` [Compound 30]: the IC50 is 2 µM.

Turning to `Cc1ccc2c(=O)c3ccccc3n(Cc3ccccc3CNCc3ncc[nH]3)c2c1C` [Compound 127], the IC50 was 5 µM. On to `Cc1ccc2c(=O)c3c(CC(=O)O)cccc3n(CCCNCc3cc4ccccc4o3)c2c1C` [Compound 11], for which the IC50 was found to be 0.5 µM. For the compound `Cc1ccc2c(=O)c3c(CC(=O)O)cccc3n(CCCNCc3ccccc3Cl)c2c1C` [Compound 105], the concentration for half-maximal inhibition (IC50) came out at 5 µM. On to `Cc1ccc2c(=O)c3c(CC(=O)O)cccc3n(CCCNCc3ccco3)c2c1C` [Compound 12], for which the IC50 came out at 0.5 µM.

In the case of `Cc1ccc2c(=O)c3ccccc3n(CCCNCc3ccccc3C(F)(F)F)c2c1C` [Compound 61], the IC50 is 1 µM. On to `Cc1ccc2c(=O)c3c(CC(=O)O)cccc3n(CCCNCc3ccc(Cl)c(O)c3Cl)c2c1C` [Compound 24], for which the IC50 turned out to be 8 µM.

With `Cc1ccc2c(=O)c3ccccc3n(CCCNCc3ccccc3F)c2c1C` [Compound 41], the IC50 turned out to be 3 µM.

Consider `Cc1ccc2c(=O)c3ccccc3n(Cc3cccc(CNCc4ccccc4)n3)c2c1C` [Compound 128], for which the half-maximal inhibitory concentration (IC50) came out at 1 µM. For `Cc1ccc2c(=O)c3c(CC(=O)O)cccc3n(CCCN(C)CCc3ccccc3)c2c1C` [Compound 113], the IC50 is 8 µM. To `CNS(=O)(=O)c1ccc(CNCCCn2c3ccccc3c(=O)c3ccc(C)c(C)c32)cc1` [Compound 69] belongs 7 µM. As to `CCOC(=O)Cc1cccc2c1c(=O)c1ccc(C)c(C)c1n2CCCNCc1ccccc1` [Compound 21], the IC50 is 8 µM.
